# Assay results taken from US20100216755A1, “ANTI-TUMOR AGENT” (AJINOMOTO CO. INC, priority 2001, published 2010).
# Where a name gives a salt, the structure may show the parent alone. Marks after values point to notes of the source that are not given here.
# Tests used:
# [1] = Maximum tolerable dose in CDF1 mice; assay type: in vivo; conditions: AC-7700 s.c. 3 times every 3 days, CDF1 mice (female)
# [2] = tested on: Malignant fibrous histiocytoma MT-9; assay: Anti-tumor effect, MT-9/F344 system (tumor volume, I.R.); assay type: in vivo, rat (F344); conditions: for I.R.(%): 3 times every 3 days
# Experimental: • Rat tumor cell line (transplant rat strain); • Malignant fibrous histiocytoma MT-9 (F344, male)
# MT-9 was obtained as in-vitro cultured cells, which were cultured in RPMI1640 medium containing 10% FBS. 10^7 or more of the MT-9 cells were subcutaneously transplanted into the back of rats. After tumor formation, tumor slices (about 100 mg) were inoculated subcutaneously into rats using cannula for serial passage.
# The MT-9/F344 system: Tumors serially passed by the subcutaneous transplantation were extirpated. After binding tissues and necrosis portions in the tumors had been removed, tumor tissues were minced with scissors and made pasty. About 50-100 mg of the tumor tissues were subcutaneously transplanted into the backs of F344 rats (day 0).
# After the tumors were multiplied to a measurable quantity (about 1-2 weeks later), the tumor size (tumor volume) and body weight were measured and divided into tumor size-and body weight-matched groups.
# The tumor sizes (tumor volumes) and body weights were measured every day from the next day to about the third day following completion of administration. Incidentally, the tumor volume was calculated according to the following formula:
# Tumor volume (mm^3)=[…].
# T/C(%)=[(tumor volume for the medicine administered group)÷(tumor volume for the control group)]×100
# The influence of Dexamethasone on the pharmaceutical effect of AC-7700 was investigated using F344 rats, subcutaneously transplanted MT-9. AC-7700 was administered at a dosage of 10 mg/kg, and 1 mg/kg of Dexamethasone was administered on the day before the AC-7700 administration. Both the medical agents were 3 times administered every 3 days.
smiles,measurement,setting,value
"COc1ccc(/C=C\c2cc(OC)c(OC)c(OC)c2)cc1NC(=O)[C@@H](N)CO [AC-7700, (Z)—N-[2-methoxy-5-[2-(3,4,5-trimethoxyphenyl)vinyl]phenyl]-L-serinamide hydrochloride]",maximum tolerable dose of AC-7700,[1]; with Dexamethasone 5 mg/kg/day i.v. on the day before and the day of AC-7700,more than 90 mg/kg/day
same,maximum tolerable dose of AC-7700,[1]; without Dexamethasone,43.6 mg/kg/day
same,tumor growth,"[2]; AC-7700 10 mg/kg as single agent, F344 rats, s.c. MT-9",significantly inhibited tumor growth
same,tumor growth,"[2]; AC-7700 10 mg/kg in combination with Dexamethasone 1 mg/kg, no significant difference from AC-7700 alone (Scheffe's F test)",inhibited tumor growth in the same manner
same,I.R.(%),"[2]; AC-7700 10 mg/kg/day alone (DEX 0), F344 rats, s.c. MT-9",84** %
same,I.R.(%),"[2]; AC-7700 10 mg/kg/day combined with DEX 1 mg/kg/day given the day before, F344 rats, s.c. MT-9",72** %
